The target in experiment [1] is T1, human GcgR (Homo sapiens, UniProt P47871).
T1 construct: expressed in transfected cells; crude membranes
Description: [125I]-Glucagon binding, SPA with WGA beads, 0.1% bacitracin. Particulars: geometric mean, read-out: hGcgR Ki. The essentials: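 SPA competition binding with WGA beads on crude membranes from HEK293 cells stably expressing hGcgR. Buffer: 25 mM HEPES pH 7.4, 2.5 mM CaCl2, 1 mM MgCl2, 0.1% bacitracin, 0.003% Tween-20; 10-point 3-fold dilutions, NSB with 1 μM Gcg.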

The target of experiment [2] is T2, human GIPR (Homo sapiens, UniProt P48546).
T2 construct: expressed in transfected cells; crude membranes
T2 sequence (P48546 22-466): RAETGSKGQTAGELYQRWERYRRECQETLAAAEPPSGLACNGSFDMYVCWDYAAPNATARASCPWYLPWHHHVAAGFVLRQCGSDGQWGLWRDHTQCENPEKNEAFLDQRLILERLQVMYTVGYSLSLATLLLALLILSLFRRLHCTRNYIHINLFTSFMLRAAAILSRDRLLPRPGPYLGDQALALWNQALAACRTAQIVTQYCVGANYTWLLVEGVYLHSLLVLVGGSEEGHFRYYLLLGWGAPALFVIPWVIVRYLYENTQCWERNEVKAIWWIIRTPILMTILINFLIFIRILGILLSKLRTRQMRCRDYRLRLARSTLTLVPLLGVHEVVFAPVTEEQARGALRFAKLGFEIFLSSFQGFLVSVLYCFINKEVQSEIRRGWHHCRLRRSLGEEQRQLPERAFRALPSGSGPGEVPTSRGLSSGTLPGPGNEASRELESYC
The experiment in a line: [125I]-GIP binding, SPA with WGA beads, 0.1% bacitracin. Particulars: geometric mean, read-out: hGIPR Ki. A digest of the protocol:
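Ki values are geometric means (SEM, n independent days), derived from four-parameter nonlinear regression of IC50. Membranes came from hGIPR-expressing CHO cells.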

Data on six molecules can be found in patent publication US12723063B2, “GIPR-agonist compounds” (Eli Lilly and Company, priority 2019, dated 2026).

*1 amine or outer side, *2 acyl side, *3 side chain or, on linkers, in order; H or OH if unused. Where a SMILES comes first, the peptide text is derived from it. Side-chain parts run from the residue outwards. [ ]: non-standard residue; d: D form. The star is where a group is joined. C20 diacid = O=C(O)CCCCCCCCCCCCCCCCCCC(=O)*; γGlu = O=C(O)[C@H](CCC(=O)[*:2])N[*:1]; αMeF = C[C@](N)(Cc1ccccc1)C(=O)O; 4Pal = N[C@@H](Cc1ccncc1)C(=O)O; αMeL = CC(C)C[C@](C)(N)C(=O)O; AEEA = NCCOCCOCC(=O)O; Aib = CC(C)(N)C(=O)O

T1 sequence (P47871 26-477): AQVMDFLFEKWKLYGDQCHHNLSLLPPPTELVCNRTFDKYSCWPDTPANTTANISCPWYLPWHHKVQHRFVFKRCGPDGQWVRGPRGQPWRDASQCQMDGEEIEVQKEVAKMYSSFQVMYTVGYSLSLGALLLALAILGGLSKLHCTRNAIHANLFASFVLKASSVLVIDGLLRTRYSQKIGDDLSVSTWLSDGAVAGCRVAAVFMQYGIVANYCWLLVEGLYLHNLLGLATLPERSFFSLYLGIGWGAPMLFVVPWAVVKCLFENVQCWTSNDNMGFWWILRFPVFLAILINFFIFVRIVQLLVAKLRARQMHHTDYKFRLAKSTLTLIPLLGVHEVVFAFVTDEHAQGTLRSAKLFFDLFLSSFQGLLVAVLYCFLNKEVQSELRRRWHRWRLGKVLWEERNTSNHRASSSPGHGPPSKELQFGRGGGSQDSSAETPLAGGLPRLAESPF

With `CC[C@H](C)[C@H](NC(=O)[C@H](Cc1ccccc1)NC(=O)[C@@H](NC(=O)CNC(=O)[C@H](CCC(=O)O)NC(=O)C(C)(C)NC(=O)[C@@H](N)Cc1ccc(O)cc1)[C@@H](C)O)C(=O)N[C@@H](CO)C(=O)N[C@@H](CC(=O)O)C(=O)N[C@@H](Cc1ccc(O)cc1)C(=O)N[C@@H](CO)C(=O)N[C@H](C(=O)N[C@@](C)(CC(C)C)C(=O)N[C@@H](CC(C)C)C(=O)N[C@@H](CC(=O)O)C(=O)N[C@@H](CCCCN)C(=O)N[C@@H](CCCCNC(=O)COCCOCCNC(=O)COCCOCCNC(=O)CC[C@H](NC(=O)CCCCCCCCCCCCCCCCCCC(=O)O)C(=O)O)C(=O)N[C@@H](Cc1c[nH]cn1)C(=O)N[C@@H](CCC(N)=O)C(=O)NC(C)(C)C(=O)N[C@@H](CCC(=O)O)C(=O)N[C@@H](Cc1ccccc1)C(=O)N[C@H](C(=O)N[C@@H](CCC(=O)O)C(=O)N[C@@H](Cc1ccncc1)C(=O)N[C@@H](CC(C)C)C(=O)N[C@@H](CC(C)C)C(=O)N[C@@H](C)C(=O)N[C@@H](CCC(N)=O)C(=O)NCC(=O)N1CCC[C@H]1C(=O)N[C@@H](CO)C(=O)N[C@@H](CO)C(=O)NCC(=O)N[C@@H](C)C(=O)N1CCC[C@H]1C(=O)N1CCC[C@H]1C(=O)N1CCC[C@H]1C(=O)N[C@@H](CO)C(N)=O)C(C)C)[C@@H](C)CC` [Example 57] (H-Y[Aib]EGTFISDYSI[αMeL]LDKK([AEEA-AEEA-γGlu-C20 diacid])HQ[Aib]EFVE[4Pal]LLAQGPSSGAPPPS-NH2), the Ki (in general, the equilibrium dissociation constant of an inhibitor or competing ligand from its target) in experiment [1] is 422 nM; in experiment [2], 0.0154 nM.

For `CC[C@H](C)[C@H](NC(=O)[C@H](Cc1ccccc1)NC(=O)[C@@H](NC(=O)CNC(=O)[C@H](CCC(=O)O)NC(=O)C(C)(C)NC(=O)[C@@H](N)Cc1ccc(O)cc1)[C@@H](C)O)C(=O)N[C@@H](CO)C(=O)N[C@@H](CC(=O)O)C(=O)N[C@@H](Cc1ccc(O)cc1)C(=O)N[C@@H](CO)C(=O)N[C@H](C(=O)N[C@@](C)(CC(C)C)C(=O)N[C@@H](CC(C)C)C(=O)N[C@@H](CC(=O)O)C(=O)N[C@@H](CCCCN)C(=O)N[C@@H](CCCCNC(=O)COCCOCCNC(=O)COCCOCCNC(=O)CC[C@H](NC(=O)CCCCCCCCCCCCCCCCCCC(=O)O)C(=O)O)C(=O)N[C@@H](Cc1c[nH]cn1)C(=O)N[C@@H](CCC(N)=O)C(=O)NC(C)(C)C(=O)N[C@@H](CCC(=O)O)C(=O)N[C@@H](Cc1ccccc1)C(=O)N[C@H](C(=O)N[C@@H](CCC(=O)O)C(=O)N[C@@H](Cc1ccncc1)C(=O)N[C@@H](CC(C)C)C(=O)N[C@@H](CC(C)C)C(=O)N[C@@H](C)C(=O)N[C@H](C(=O)NCC(=O)N1CCC[C@H]1C(=O)N[C@@H](CO)C(=O)N[C@@H](CO)C(=O)NCC(=O)N[C@@H](C)C(=O)N1CCC[C@H]1C(=O)N1CCC[C@H]1C(=O)N1CCC[C@H]1C(=O)N[C@@H](CO)C(N)=O)[C@@H](C)O)C(C)C)[C@@H](C)CC` [Example 58] (H-Y[Aib]EGTFISDYSI[αMeL]LDKK([AEEA-AEEA-γGlu-C20 diacid])HQ[Aib]EFVE[4Pal]LLATGPSSGAPPPS-NH2), the Ki worked out at 418 nM in experiment [1] and 0.0324 nM in experiment [2].

For the molecule `CC[C@H](C)[C@H](NC(=O)[C@H](Cc1ccccc1)NC(=O)[C@@H](NC(=O)CNC(=O)[C@H](CCC(=O)O)NC(=O)C(C)(C)NC(=O)[C@@H](N)Cc1ccc(O)cc1)[C@@H](C)O)C(=O)N[C@@H](CO)C(=O)N[C@@H](CC(=O)O)C(=O)N[C@@H](Cc1ccc(O)cc1)C(=O)N[C@@H](CO)C(=O)N[C@H](C(=O)N[C@@](C)(CC(C)C)C(=O)N[C@@H](CC(C)C)C(=O)N[C@@H](CC(=O)O)C(=O)N[C@@H](CCCCN)C(=O)N[C@@H](CCCCNC(=O)COCCOCCNC(=O)COCCOCCNC(=O)CC[C@H](NC(=O)CCCCCCCCCCCCCCCCCCC(=O)O)C(=O)O)C(=O)N[C@@H](Cc1c[nH]cn1)C(=O)N[C@@H](CCC(N)=O)C(=O)NC(C)(C)C(=O)N[C@@H](CCC(=O)O)C(=O)N[C@@H](Cc1ccccc1)C(=O)N[C@H](C(=O)N[C@@H](CCC(=O)O)C(=O)N[C@@H](Cc1ccncc1)C(=O)N[C@@H](CC(C)C)C(=O)N[C@@H](CC(C)C)C(=O)N[C@@H](C)C(=O)N[C@@H](C)C(=O)NCC(=O)N1CCC[C@H]1C(=O)N[C@@H](CO)C(=O)N[C@@H](CO)C(=O)NCC(=O)N[C@@H](C)C(=O)N1CCC[C@H]1C(=O)N1CCC[C@H]1C(=O)N1CCC[C@H]1C(=O)N[C@@H](CO)C(N)=O)C(C)C)[C@@H](C)CC` [Example 59], the Ki in experiment [1] was determined as 230 nM; in experiment [2], 0.0148 nM.

In the case of `CC[C@H](C)[C@H](NC(=O)[C@H](CO)NC(=O)[C@H](Cc1ccc(O)cc1)NC(=O)[C@H](CC(=O)O)NC(=O)[C@H](CO)NC(=O)[C@@H](NC(=O)[C@](C)(Cc1ccccc1)NC(=O)[C@@H](NC(=O)CNC(=O)[C@H](CCC(=O)O)NC(=O)C(C)(C)NC(=O)[C@@H](N)Cc1ccc(O)cc1)[C@@H](C)O)[C@@H](C)CC)C(=O)N[C@@](C)(CC(C)C)C(=O)N[C@@H](CC(C)C)C(=O)N[C@@H](CC(=O)O)C(=O)N[C@@H](CCCCN)C(=O)N[C@@H](CCCCNC(=O)COCCOCCNC(=O)COCCOCCNC(=O)CC[C@H](NC(=O)CCCCCCCCCCCCCCCCCCC(=O)O)C(=O)O)C(=O)N[C@@H](Cc1c[nH]cn1)C(=O)N[C@@H](CCC(N)=O)C(=O)NC(C)(C)C(=O)N[C@@H](CCC(=O)O)C(=O)N[C@@H](Cc1ccccc1)C(=O)N[C@H](C(=O)N[C@@H](CCC(=O)O)C(=O)N[C@@H](Cc1ccncc1)C(=O)N[C@@H](CC(C)C)C(=O)N[C@@H](CC(C)C)C(=O)N[C@@H](C)C(=O)N[C@@H](CCC(N)=O)C(=O)NCC(=O)N1CCC[C@H]1C(=O)N[C@@H](CO)C(=O)N[C@@H](CO)C(=O)NCC(=O)N[C@@H](C)C(=O)N1CCC[C@H]1C(=O)N1CCC[C@H]1C(=O)N1CCC[C@H]1C(=O)N[C@@H](CO)C(N)=O)C(C)C` [Example 60] (H-Y[Aib]EGT[αMeF]ISDYSI[αMeL]LDKK([AEEA-AEEA-γGlu-C20 diacid])HQ[Aib]EFVE[4Pal]LLAQGPSSGAPPPS-NH2), the Ki in experiment [1] was determined as 26.2 nM; in experiment [2] it was 0.039 nM.

`CC[C@H](C)[C@H](NC(=O)[C@H](CO)NC(=O)[C@H](Cc1ccc(O)cc1)NC(=O)[C@H](CC(=O)O)NC(=O)[C@H](CO)NC(=O)[C@@H](NC(=O)[C@](C)(Cc1ccccc1)NC(=O)[C@@H](NC(=O)CNC(=O)[C@H](CCC(=O)O)NC(=O)C(C)(C)NC(=O)[C@@H](N)Cc1ccc(O)cc1)[C@@H](C)O)[C@@H](C)CC)C(=O)N[C@@](C)(CC(C)C)C(=O)N[C@@H](CC(C)C)C(=O)N[C@@H](CC(=O)O)C(=O)N[C@@H](CCCCN)C(=O)N[C@@H](CCCCNC(=O)COCCOCCNC(=O)COCCOCCNC(=O)CC[C@H](NC(=O)CCCCCCCCCCCCCCCCCCC(=O)O)C(=O)O)C(=O)N[C@@H](Cc1c[nH]cn1)C(=O)N[C@@H](CCC(N)=O)C(=O)NC(C)(C)C(=O)N[C@@H](CCC(=O)O)C(=O)N[C@@H](Cc1ccccc1)C(=O)N[C@H](C(=O)N[C@@H](CCC(=O)O)C(=O)N[C@@H](Cc1ccncc1)C(=O)N[C@@H](CC(C)C)C(=O)N[C@@H](CC(C)C)C(=O)N[C@@H](C)C(=O)N[C@H](C(=O)NCC(=O)N1CCC[C@H]1C(=O)N[C@@H](CO)C(=O)N[C@@H](CO)C(=O)NCC(=O)N[C@@H](C)C(=O)N1CCC[C@H]1C(=O)N1CCC[C@H]1C(=O)N1CCC[C@H]1C(=O)N[C@@H](CO)C(N)=O)[C@@H](C)O)C(C)C` [Example 61] (H-Y[Aib]EGT[αMeF]ISDYSI[αMeL]LDKK([AEEA-AEEA-γGlu-C20 diacid])HQ[Aib]EFVE[4Pal]LLATGPSSGAPPPS-NH2): the values for the Ki in experiment [1] and in experiment [2] were 80.4 nM and 0.0665 nM, respectively.

On to `CC[C@H](C)[C@H](NC(=O)[C@H](CO)NC(=O)[C@H](Cc1ccc(O)cc1)NC(=O)[C@H](CC(=O)O)NC(=O)[C@H](CO)NC(=O)[C@@H](NC(=O)[C@](C)(Cc1ccccc1)NC(=O)[C@@H](NC(=O)CNC(=O)[C@H](CCC(=O)O)NC(=O)C(C)(C)NC(=O)[C@@H](N)Cc1ccc(O)cc1)[C@@H](C)O)[C@@H](C)CC)C(=O)N[C@@](C)(CC(C)C)C(=O)N[C@@H](CC(C)C)C(=O)N[C@@H](CC(=O)O)C(=O)N[C@@H](CCCCN)C(=O)N[C@@H](CCCCNC(=O)COCCOCCNC(=O)COCCOCCNC(=O)CC[C@H](NC(=O)CCCCCCCCCCCCCCCCCCC(=O)O)C(=O)O)C(=O)N[C@@H](Cc1c[nH]cn1)C(=O)N[C@@H](CCC(N)=O)C(=O)NC(C)(C)C(=O)N[C@@H](CCC(=O)O)C(=O)N[C@@H](Cc1ccccc1)C(=O)N[C@H](C(=O)N[C@@H](CCC(=O)O)C(=O)N[C@@H](Cc1ccncc1)C(=O)N[C@@H](CC(C)C)C(=O)N[C@@H](CC(C)C)C(=O)N[C@@H](C)C(=O)N[C@@H](C)C(=O)NCC(=O)N1CCC[C@H]1C(=O)N[C@@H](CO)C(=O)N[C@@H](CO)C(=O)NCC(=O)N[C@@H](C)C(=O)N1CCC[C@H]1C(=O)N1CCC[C@H]1C(=O)N1CCC[C@H]1C(=O)N[C@@H](CO)C(N)=O)C(C)C` [Example 62] (H-Y[Aib]EGT[αMeF]ISDYSI[αMeL]LDKK([AEEA-AEEA-γGlu-C20 diacid])HQ[Aib]EFVE[4Pal]LLAAGPSSGAPPPS-NH2), for which the Ki came to 31.3 nM in experiment [1] and 0.0414 nM in experiment [2].
